pIC50: −log10 of the molar value.
Columns and labels:
ALK kinase = ALK kinase (Homo sapiens, UniProt Q9UM73); assay: Test to measure ALK kinase inhibition (GST-PLCγ1 substrate, anti-phosphotyrosine ELISA, luminescence); assay type: biochemical; conditions: ALK kinase 180 ng/ml, 250 μM ATP, 30 minutes at 30° C.
Method: Test to Measure ALK Kinase Inhibition
A ViewPlate (Packard) is incubated with the GST-PLCγ1 substrate (purified recombinant form) at 0.1 mg/ml in phosphate buffer (PBS pH 7.4)(100 μl/well) for one hour under shaking. The plate is then saturated with a blocking solution containing 5% bovine serum albumin (BSA) (SIGMA) in PBS buffer pH 7.4.
After adding the inhibitor at the desired final concentration (usual range of 30 μM to 10 nM), the reaction is conducted by adding the ALK kinase at 180 ng/ml in 13 mM Tris reaction buffer pH 7.5 (SIGMA); 6.5 mM MgCl2 (MERCK); 0.65 mM DiThioThreitol (DTT) (ACROS); 39 mM sodium β-glycerophosphate (TCI); 0.65 mM sodium orthovanadate (SIGMA) and 250 μM ATP (SIGMA). Incubation is carried out for 30 minutes at 30° C. under shaking.
After three washings under shaking in 0.1% PBS/Tween-20 buffer (SIGMA), an anti-phosphotyrosine antibody coupled with HRP (UBI) diluted to 1/1000th in PBS/BSA buffer 5 mg/ml, is incubated for one hour under shaking. After three further washings in 0.1% PBS/Tween-20, the wells are incubated two minutes with 100 μl of SuperSignal ELISA mixture (PIERCE).
The signal is read in luminescent mode using a luminometer (MOLECULAR DEVICES SpectraMax M5e).

karpas 299 cells = assay: Measurement of inhibition of cell proliferation (Karpas), ATPlite; assay type: cell-based
Method: Measurement of Inhibition of Cell Proliferation (Karpas):
The antiproliferative activities of the compounds were measured using the ATPlite technique (Perkin Elmer).
The non-adhering cells (karpas 299) are seeded in 96-well plates (300 000 cells/ml) on Day 1 at a concentration compatible with logarithmic growth for 72 hours required for evaluation of the compounds. All the cells are treated on Day 1, then placed in an incubator at 37° C. under 5% CO2 atmosphere. Cell viability is evaluated on Day 4 by assay of released ATP, characteristic of viable cells. The IC50 values are determined by non-linear regression on the basis of a sigmoid model of dose/response relationship, Hill's slope coefficient being left variable, performed using GraphPad software sequence with the supplied algorithm.

Sequence of ALK kinase (Q9UM73 19-1620): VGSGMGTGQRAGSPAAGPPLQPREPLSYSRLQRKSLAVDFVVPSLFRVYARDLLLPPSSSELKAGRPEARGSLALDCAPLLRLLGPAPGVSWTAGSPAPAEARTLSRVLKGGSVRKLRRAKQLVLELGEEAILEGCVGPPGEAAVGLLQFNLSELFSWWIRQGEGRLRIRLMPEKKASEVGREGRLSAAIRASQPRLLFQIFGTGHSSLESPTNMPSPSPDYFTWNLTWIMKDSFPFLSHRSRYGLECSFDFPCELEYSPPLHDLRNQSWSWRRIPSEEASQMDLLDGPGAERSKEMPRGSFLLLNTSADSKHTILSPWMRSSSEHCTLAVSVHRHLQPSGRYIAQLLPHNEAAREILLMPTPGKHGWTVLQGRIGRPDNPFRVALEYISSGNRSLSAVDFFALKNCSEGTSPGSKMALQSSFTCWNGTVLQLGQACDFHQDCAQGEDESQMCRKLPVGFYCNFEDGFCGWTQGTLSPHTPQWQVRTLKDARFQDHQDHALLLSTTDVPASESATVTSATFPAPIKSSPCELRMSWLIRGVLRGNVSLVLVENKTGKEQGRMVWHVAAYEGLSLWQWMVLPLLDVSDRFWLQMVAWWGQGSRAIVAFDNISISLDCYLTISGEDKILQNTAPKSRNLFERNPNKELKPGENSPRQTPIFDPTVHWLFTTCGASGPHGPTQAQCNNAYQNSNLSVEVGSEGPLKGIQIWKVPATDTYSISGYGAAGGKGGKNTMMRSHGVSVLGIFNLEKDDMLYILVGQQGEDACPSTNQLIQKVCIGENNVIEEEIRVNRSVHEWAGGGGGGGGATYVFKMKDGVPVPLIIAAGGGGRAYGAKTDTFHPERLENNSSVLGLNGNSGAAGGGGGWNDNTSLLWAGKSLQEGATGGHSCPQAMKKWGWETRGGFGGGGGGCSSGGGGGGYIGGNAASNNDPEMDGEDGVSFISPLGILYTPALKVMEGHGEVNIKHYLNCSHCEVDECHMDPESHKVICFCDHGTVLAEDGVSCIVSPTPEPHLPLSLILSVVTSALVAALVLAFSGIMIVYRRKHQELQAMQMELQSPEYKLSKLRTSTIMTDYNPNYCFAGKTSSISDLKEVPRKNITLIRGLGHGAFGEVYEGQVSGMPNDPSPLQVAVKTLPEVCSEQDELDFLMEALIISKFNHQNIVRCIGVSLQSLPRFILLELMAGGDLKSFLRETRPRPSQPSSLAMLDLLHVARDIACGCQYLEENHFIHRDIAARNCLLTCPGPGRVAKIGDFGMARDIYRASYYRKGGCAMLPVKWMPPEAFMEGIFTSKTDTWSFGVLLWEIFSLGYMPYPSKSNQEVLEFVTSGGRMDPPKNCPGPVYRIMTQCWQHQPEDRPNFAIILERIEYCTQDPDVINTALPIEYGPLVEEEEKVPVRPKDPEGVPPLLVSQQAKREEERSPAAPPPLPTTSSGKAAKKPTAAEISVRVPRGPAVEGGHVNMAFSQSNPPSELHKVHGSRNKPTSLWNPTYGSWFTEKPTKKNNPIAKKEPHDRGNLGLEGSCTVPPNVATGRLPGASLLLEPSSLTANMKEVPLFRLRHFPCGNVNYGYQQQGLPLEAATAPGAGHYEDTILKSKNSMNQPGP

Row | Compound | pIC50 (ALK kinase) | pIC50 (karpas 299 cells; Homo sapiens, KARPAS-299, 72 h) | pIC50 (karpas 299 cells; 72 hours)
1 | N#Cc1c(-c2ccc(O)cc2)nc2[nH]ncc2c1-c1ccc(O)cc1 [Compound 17] | 6.00 to 7.00 | 5.00 to 6.00 | 
2 | Cc1n[nH]c2nc(-c3ccc(O)cc3)c(C#N)c(-c3ccc(O)cc3)c12 [Compound 19] | 6.00 to 7.00 | 5.00 to 6.00 | 
3 | N#Cc1c(-c2ccc(O)cc2)nc2[nH]ncc2c1-c1ccco1 [Compound 44] | > 7.00 | 6.00 to 7.00 | 
4 | N#Cc1c(-c2ccc(O)cc2)nc2[nH]ncc2c1-c1ccoc1 [Compound 45] | 6.00 to 7.00 | 5.00 to 6.00 | 
5 | CN1CCN(Cc2ccc(-c3c(C#N)c(-c4ccc(O)cc4)nc4[nH]ncc34)cc2)CC1 [Compound 47] | 5.00 to 6.00 | 5.00 to 6.00 | 
6 | N#Cc1c(-c2ccc(O)cc2)nc2[nH]ncc2c1-c1nccs1 [Compound 48] | 6.00 to 7.00 | 5.00 to 6.00 | 
7 | N#Cc1c(-c2ccc(O)cc2)nc2[nH]ncc2c1-c1ccsc1 [Compound 50] | 6.00 to 7.00 | 5.00 to 6.00 | 
8 | N#Cc1c(-c2ccc(O)cc2)nc2[nH]ncc2c1-c1cccs1 [Compound 52] | 6.00 to 7.00 | 5.00 to 6.00 | 
9 | N#Cc1c(-c2ccc(O)cc2)nc2[nH]ncc2c1-c1ccc(CN)cc1 [Compound 53] | 6.00 to 7.00 | 5.00 to 6.00 | 
10 | N#Cc1c(-c2ccc(O)cc2)nc2[nH]ncc2c1-c1ccc(Cn2ccnc2)cc1 [Compound 54] | 5.00 to 6.00 | < 5.00 | 
11 | N#Cc1c(-c2ccc(O)cc2)nc2[nH]ncc2c1-c1ccc(N2CCNCC2)cc1 [Compound 59] | 6.00 to 7.00 | 5.00 to 6.00 | 
12 | N#Cc1c(-c2ccc(O)cc2)nc2[nH]ncc2c1-c1cccc(N2CCNCC2)c1 [Compound 68] | 6.00 to 7.00 | 5.00 to 6.00 | 
13 | N#Cc1c(-c2ccc(O)cc2)nc2[nH]ncc2c1-c1ccc(OCCN2CCOCC2)cc1 [Compound 73] | 6.00 to 7.00 |  | 
14 | COc1cc(-c2cc3[nH]ncc3c(-c3ccco3)c2C#N)ccc1O [Compound 74] | 6.00 to 7.00 |  | 
15 | N#Cc1c(-c2ccc(O)cc2F)nc2[nH]ncc2c1-c1ccco1 [Compound 75] | > 7.00 | 6.00 to 7.00 | 
16 | N#Cc1c(-c2ccc(O)c(F)c2)cc2[nH]ncc2c1-c1ccco1 [Compound 76] | 6.00 to 7.00 | 5.00 to 6.00 | 
17 | N#Cc1c(-c2ccc(O)cc2F)nc2[nH]ncc2c1-c1ccc(CO)o1 [Compound 77] | 6.00 to 7.00 | 5.00 to 6.00 | 
18 | Cc1n[nH]c2nc(-c3ccc(O)cc3)c(C#N)c(-c3ccco3)c12 [Compound 78] | 6.00 to 7.00 | 5.00 to 6.00 | 
19 | Cc1n[nH]c2cc(-c3ccc(O)cc3F)c(C#N)c(-c3ccc(CN)o3)c12 [Compound 80] | 6.00 to 7.00 | 5.00 to 6.00 | 
20 | Cc1n[nH]c2cc(-c3ccc(O)cc3F)c(C#N)c(-c3ccco3)c12 [Compound 81] | > 7.00 | 6.00 to 7.00 | 

Row | Compound | pIC50 (ALK kinase) | pIC50 (karpas 299 cells; Homo sapiens, KARPAS-299, 72 h) | pIC50 (karpas 299 cells; 72 hours)
21 | CN1CCN(c2ccc(-c3c(C#N)c(-c4ccc(O)cc4)nc4[nH]ncc34)o2)CC1 [Compound 82] | 6.00 to 7.00 | 5.00 to 6.00 | 
22 | CN1CCN(c2ccc(-c3c(C#N)c(-c4ccc(O)cc4F)nc4[nH]ncc34)o2)CC1 [Compound 83] | > 7.00 | 6.00 to 7.00 | 
23 | N#Cc1c(-c2ccc(O)cc2F)nc2[nH]ncc2c1-c1ccc(CN2CCOCC2)o1 [Compound 84] | 6.00 to 7.00 | 5.00 to 6.00 | 
24 | CN1CCN(Cc2ccc(-c3c(C#N)c(-c4ccc(O)cc4F)nc4[nH]ncc34)o2)CC1 [Compound 85] | 6.00 to 7.00 | 5.00 to 6.00 | 
25 | N#Cc1c(-c2ccc(O)cc2F)nc2[nH]ncc2c1-c1ccc(N2CCOCC2)o1 [Compound 86] | > 7.00 | 5.00 to 6.00 | 
26 | Cc1n[nH]c2nc(-c3ccc(O)cc3F)c(C#N)c(-c3ccc(N4CCNCC4)cc3)c12 [Compound 88] | > 7.00 |  | 6.00 to 7.00
27 | Cc1n[nH]c2nc(-c3cc(Br)c(O)c(Br)c3F)c(C#N)c(-c3ccco3)c12 [Compound 90] | 5.00 to 6.00 | < 5.00 | 
28 | N#Cc1c(-c2ccc(O)cc2F)nc2[nH]ncc2c1-c1ccc(N2CCNCC2)cc1 [Compound 91] | > 7.00 | 5.00 to 6.00 | 
29 | Cc1ccc(-c2c(C#N)c(-c3ccc(O)cc3F)nc3[nH]ncc23)o1 [Compound 92] | > 7.00 | 6.00 to 7.00 | 
30 | N#Cc1c(-c2ccc(O)cc2F)nc2[nH]nc(N)c2c1-c1ccco1 [Compound 93] | < 5.00 | 6.00 to 7.00 | 
31 | Cc1c(C#N)c(-c2ccc(O)cc2)nc2[nH]nc(-c3ccc(N4CCNCC4)cc3)c12 [Compound 96] | 6.00 to 7.00 | 5.00 to 6.00 | 
32 | N#Cc1c(-c2ccc(O)cc2F)nc2[nH]ncc2c1-c1ccc(-c2nn[nH]n2)cc1 [Compound 101] | 5.00 to 6.00 | 5.00 to 6.00 | 
33 | N#Cc1cc2c(-c3ccc(N4CCNCC4)cc3)n[nH]c2nc1-c1ccc(O)cc1 [Compound 102] | > 7.00 | 6.00 to 7.00 | 
34 | Cc1c(C#N)c(-c2ccc(O)cc2)nc2[nH]nc(-c3ccnc(N4CCN(C)CC4)c3)c12 [Compound 103] | 6.00 to 7.00 | < 5.00 | 
35 | CN1CCN(c2ccc(-c3c(C#N)c(-c4ccc(O)cc4F)nc4[nH]nc(N)c34)o2)CC1 [Compound 104] | > 7.00 | 5.00 to 6.00 | 
36 | N#Cc1cc2c(N)n[nH]c2nc1-c1ccc(O)cc1F [Compound 105] | 6.00 to 7.00 | 5.00 to 6.00 | 
37 | Cc1c(C#N)c(-c2ccc(O)cc2)nc2[nH]nc(-c3cccc(N4CCNCC4)c3)c12 [Compound 106] | 6.00 to 7.00 | 5.00 to 6.00 | 
38 | Cc1c(C#N)c(-c2ccc(O)cc2F)nc2[nH]nc(-c3csc(C4CCNCC4)n3)c12 [Compound 108] | > 7.00 | 5.00 to 6.00 | 
39 | N#Cc1c(-c2ccc(O)cc2F)nc2[nH]ncc2c1-c1ccc(N2CCNCC2)o1 [Compound 113] | > 7.00 | 6.00 to 7.00 | 
40 | Cc1c(C#N)c(-c2ccc(O)cc2F)nc2[nH]nc(N)c12 [Compound 114] | 6.00 to 7.00 | 5.00 to 6.00 | 

Row | Compound | pIC50 (ALK kinase) | pIC50 (karpas 299 cells; Homo sapiens, KARPAS-299, 72 h) | pIC50 (karpas 299 cells; 72 hours)
41 | Cc1c(C#N)c(-c2ccc(O)cc2F)nc2[nH]nc(-c3ccc(N4CCN(C)CC4)nc3)c12 [Compound 115] | 6.00 to 7.00 | 5.00 to 6.00 | 
42 | Cc1n[nH]c2nc(-c3ccc(O)cc3F)c(C#N)c(-c3ccc(N(C)C)cc3)c12 [Compound 116] | 6.00 to 7.00 | 5.00 to 6.00 | 
43 | N#Cc1c(-c2ccc(O)cc2F)nc2[nH]ncc2c1-c1ccc(Br)o1 [Compound 117] | > 7.00 | 6.00 to 7.00 | 
44 | Cc1c(C#N)c(-c2ccc(O)cc2F)nc2[nH]nc(-c3ccc(N4CCNCC4)cc3)c12 [Compound 118] | > 7.00 | 5.00 to 6.00 | 
45 | Cc1c(C#N)c(-c2ccc(O)cc2F)nc2[nH]nc(-c3ccc(N(C)CCN(C)C)nc3)c12 [Compound 119] | 6.00 to 7.00 | 5.00 to 6.00 | 
46 | Cc1cc(-c2n[nH]c3nc(-c4ccc(O)cc4F)c(C#N)c(C)c23)no1 [Compound 120] | 6.00 to 7.00 | 5.00 to 6.00 | 
47 | N#Cc1c(-c2ccc(O)cc2F)nc2[nH]nc(N)c2c1-c1ccc(N2CCNCC2)cc1 [Compound 121] | > 7.00 | 5.00 to 6.00 | 
48 | Cc1n[nH]c2nc(-c3ccc(O)cc3F)c(C#N)c(-c3ccc(N4CC[C@@H](N)C4)o3)c12 [Compound 122] | > 7.00 | 5.00 to 6.00 | 
49 | CNC1CCN(c2ccc(-c3n[nH]c4nc(-c5ccc(O)cc5F)c(C#N)c(C)c34)cn2)C1 (stereo not drawn) [Compound 123] | 6.00 to 7.00 | 5.00 to 6.00 | 
50 | Cc1n[nH]c2nc(-c3ccc(O)cc3F)c(C#N)c(-c3ccc(N4CC[C@@H](N)C4)nc3)c12 [Compound 124] | > 7.00 | 5.00 to 6.00 | 
51 | CNC1CCN(c2ccc(-c3c(C#N)c(-c4ccc(O)cc4F)nc4[nH]nc(C)c34)o2)C1 (stereo not drawn) [Compound 130] | > 7.00 | 6.00 to 7.00 | 
52 | Cc1n[nH]c2nc(-c3ccc(O)cc3F)c(C#N)c(-c3ccc(N4CCNCC4)nc3)c12 [Compound 131] | 6.00 to 7.00 | 5.00 to 6.00 | 
53 | Cc1n[nH]c2nc(Cc3ccc(F)cc3F)c(C#N)c(-c3ccc(N4CCNCC4)cc3F)c12 [Compound 302] | < 5.00 |  | 
54 | N#Cc1c(-c2ccc(O)cc2)nc2[nH]nc(N)c2c1-c1ccc(N2CCNCC2)cc1 [Compound 303] | 5.00 to 6.00 |  | 
55 | N#Cc1c(-c2ccc(OC(=O)c3ccccc3)cc2F)nc2[nH]nc(N)c2c1-c1ccc(N2CCNCC2)cc1 [Compound 304] | 5.00 to 6.00 |  | 
56 | COC(=O)c1c(-c2ccc(O)cc2)nc2[nH]nc(N)c2c1-c1ccc(N2CCNCC2)cc1 [Compound 305] | > 7.00 |  | 
57 | COC(=O)c1c(-c2ccc(OC(=O)C3CC3)cc2F)nc2[nH]nc(C)c2c1-c1ccc(N2CCNCC2)cc1 [Compound 306] | > 7.00 |  | 
58 | COC(=O)c1c(-c2ccc(O)cc2)nc2[nH]nc(N)c2c1-c1ccc(N2CCN(C)CC2)cc1 [Compound 307] | > 7.00 |  | 
